Laboratory results reported in patent US10227331B2 (priority 2015, dated 2019).
Read-outs that look alike come from different tables or passages of the source.

What was measured:
VIM-1 = VIM-1 (Pseudomonas aeruginosa (strain ATCC 15692 / DSM 22644 / CIP 104116 / JCM 14847 / LMG 12228 / 1C / PRS 101 / PAO1), UniProt A0A0F7KYQ8); test: biochemical; details: CCF2-FA substrate, 2 hours at 25° C
How it was run: (§1)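 Inhibitor was mixed with the metallo-β-lactamase and CCF2-FA. After 2 hours at 25° C, fluorescence of the coumarin–fluorescein cephalosporin substrate was read. IC50 was calculated with a 4-parameter fit.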

[1] = tested on: P. aeruginosa expressing IMP-1, efflux+ (MB9798); format: cell-based, Pseudomonas aeruginosa; details: for P. aeruginosa expressing IMP-1, efflux+ (MB9798) MITC95: imipenem at 2 μg/mL, in the presence of a class A, C, D serine β-lactamase inhibitor closely related to relebactam; for Efflux ratio: ratio MITC95 PA_9798/MITC95 PA_9799
Description: (§2) The strain background is Pseudomonas aeruginosa PAO1.

NDM-1 = NDM-1 (Klebsiella pneumoniae, UniProt C7C422); test: biochemical; format: biochemical
How it was run: as §1

IMP-1 = IMP-1 (Serratia marcescens, UniProt P52699); test: biochemical; format: biochemical; details: CCF2-FA substrate, 2 hours at 25° C; read-out: IMP-1 IC50
How it was run: as §1

[2] = tested on: Klebsiella pneumoniae expressing VIM-1 (IHMA599644); format: cell-based; details: VIM-1 (IHMA599644), with imipenem 1 μg/ml, 95% inhibition of bacterial growth
How it was run: (§3)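 Colonies from overnight 35 °C blood-agar cultures were suspended in saline, diluted 1:100 into 1.1× CAMHB and exposed to test compound with or without imipenem at 1 μg/ml. After 22–24 h at 35 °C, absorbance was read to find the concentration restoring imipenem susceptibility.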

[3] = tested on: Serratia marcescens expressing IMP-1 (CL5741); format: cell-based; details: IMP-1 (CL5741), with imipenem 1 μg/ml, 95% inhibition of bacterial growth
How it was run: as §3

[4] = tested on: Escherichia coli expressing NDM-1 (CLB30005, CLB30016); format: cell-based; details: NDM-1 (CLB30016), with imipenem 1 μg/ml, 95% inhibition of bacterial growth
How it was run: as §3

[5] = tested on: P. aeruginosa expressing IMP-1, efflux− (MB9799); test: Efflux: concentration of MBL inhibitor which restores susceptibility to imipenem; format: cell-based, Pseudomonas aeruginosa; details: imipenem at 2 μg/mL, in the presence of a class A, C, D serine β-lactamase inhibitor closely related to relebactam
Description: as §2

[6] = CCF2-FA substrate, 2 hours at 25° C, read-out: NDM-1 IC50

Chain of NDM-1 (C7C422 whole entry, looked up, species assumed): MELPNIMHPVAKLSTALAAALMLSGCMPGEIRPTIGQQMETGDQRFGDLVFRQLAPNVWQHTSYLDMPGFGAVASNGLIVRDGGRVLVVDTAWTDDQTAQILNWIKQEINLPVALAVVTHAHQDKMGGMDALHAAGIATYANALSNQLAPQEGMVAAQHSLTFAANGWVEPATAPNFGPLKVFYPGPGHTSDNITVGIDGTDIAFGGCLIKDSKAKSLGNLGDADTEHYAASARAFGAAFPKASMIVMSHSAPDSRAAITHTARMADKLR
Chain of IMP-1 (P52699 whole entry, looked up, species assumed): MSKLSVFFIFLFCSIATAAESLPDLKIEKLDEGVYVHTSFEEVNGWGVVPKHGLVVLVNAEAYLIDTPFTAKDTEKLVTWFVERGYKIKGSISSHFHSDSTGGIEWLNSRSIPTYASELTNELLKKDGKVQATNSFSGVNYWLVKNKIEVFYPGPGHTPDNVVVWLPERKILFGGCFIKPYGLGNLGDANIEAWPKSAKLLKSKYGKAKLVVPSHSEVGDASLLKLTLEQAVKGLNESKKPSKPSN

| Compound | IC50 (VIM-1) [nM] | P. aeruginosa expressing IMP-1, efflux+ (MB9798) MITC95 [1] [µM] | Efflux ratio [1] | IC50 (NDM-1; [6]) [nM] | IC50 (IMP-1) [nM] | Klebsiella pneumoniae MITC95 [2] [µM] | Serratia marcescens MITC95 [3] [µM] | Escherichia coli MITC95 [4] [µM] | P. aeruginosa expressing IMP-1, efflux− (MB9799) MITC95 [5] [µM] | IC50 (NDM-1) [nM] |
| --- | --- | --- | --- | --- | --- | --- | --- | --- | --- | --- |
| Nc1nc2cc(C(F)(F)F)cc(-c3ccc(S(=O)(=O)C4CNC4)c(S(N)(=O)=O)c3-c3nnn[nH]3)c2[nH]1 [Example 260, 3-(2-amino-5-(trifluoromethyl)-1H-benzo[d]imidazol-7-yl)-6-(azetidin-3-ylsulfonyl)-2-(1H-tetrazol-5-yl)benzenesulfonamide] | 0.813 | 6.25 | 1.00 | 0.598 | 1.99 | 12.5 | 6.25 | 6.25 | 6.25 | – |
| N#Cc1cc(-c2ccc(S(=O)(=O)C3CNC3)c(S(N)(=O)=O)c2-c2nnn[nH]2)c2[nH]c(N)nc2c1 [Example 261, 3-(2-amino-5-cyano-1H-benzo[d]imidazol-7-yl)-6-(azetidin-3-ylsulfonyl)-2-(1H-tetrazol-5-yl) benzenesulfonamide] | 0.734 | 6.25 | 1.00 | 0.4 | 1.15 | 12.5 | 6.25 | 6.25 | 6.25 | – |
| Nc1nc2cc(F)cc(-c3ccc(S(=O)(=O)C4CNC4)c(S(N)(=O)=O)c3-c3nnn[nH]3)c2[nH]1 [Example 262, 3-(2-amino-5-fluoro-1H-benzo[d]imidazol-7-yl)-6-(azetidin-3-ylsulfonyl)-2-(1H-tetrazol-5-yl) benzenesulfonamide] | 0.322 | 0.7813 | 1.00 | 0.0803 | 0.506 | 3.125 | 1.563 | 0.7813 | 0.7813 | – |
| Nc1n[nH]c2cccc(-c3ccc(S(=O)(=O)C4CNC4)c(S(N)(=O)=O)c3-c3nnn[nH]3)c12 [Example 263, 3-(3-amino-1H-indazol-4-yl)-6-(azetidin-3-ylsulfonyl)-2-(1H-tetrazol-5-yl) benzenesulfonamide] | 0.594 | 6.25 | 2.00 | 0.431 | 4.59 | 6.25 | 1.563 | 1.563 | 3.125 | – |
| Nc1n[nH]c2ccc(-c3ccc(S(=O)(=O)C4CNC4)c(S(N)(=O)=O)c3-c3nnn[nH]3)cc12 [Example 264, 3-(3-amino-1H-indazol-5-yl)-6-(azetidin-3-ylsulfonyl)-2-(1H-tetrazol-5-yl) benzenesulfonamide] | 0.175 | 6.25 | 8.00 | 0.364 | 1.82 | 3.125 | 1.563 | 3.125 | 0.7813 | – |
| Cn1nc(N)c2c(-c3ccc(S(=O)(=O)C4CNC4)c(S(N)(=O)=O)c3-c3nnn[nH]3)cccc21 [Example 265, 3-(3-amino-1-methyl-1H-indazol-4-yl)-6-(azetidin-3-ylsulfonyl)-2-(1H-tetrazol-5-yl) benzenesulfonamide] | 0.239 | 6.25 | 4.00 | 0.168 | 1.49 | 6.25 | 1.563 | 3.125 | 1.563 | – |
| Cn1nc(N)c2c(-c3ccc(S(=O)(=O)CCN)c(S(N)(=O)=O)c3-c3nnn[nH]3)cccc21 [Example 266, 3-(3-amino-1-methyl-1H-indazol-4-yl)-6-((2-aminoethyl)sulfonyl)-2-(1H-tetrazol-5-yl) benzenesulfonamide] | 0.232 | 6.25 | 2.00 | 0.198 | 0.643 | 6.25 | 3.125 | 6.25 | 3.125 | – |
| C[C@@H](N)CS(=O)(=O)c1ccc(-c2cccc3[nH]c(N)nc23)c(-c2nn[nH]n2)c1S(N)(=O)=O [Example 267, 3-(2-amino-1H-benzo[d]imidazol-4-yl)-6-((R)-2-aminopropylsulfonyl)-2-(2H-tetrazol-5-yl)benzenesulfonamide] | 0.517 | 0.7813 | 1.00 | 0.213 | 0.964 | 1.563 | 0.7813 | 0.3906 | 0.7813 | – |
| C[C@@H](N)CS(=O)(=O)c1ccc(-c2cccc3sc(N)nc23)c(-c2nn[nH]n2)c1S(N)(=O)=O [Example 268, 3-(2-aminobenzo[d]thiazol-4-yl)-6-((R)-2-aminopropylsulfonyl)-2-(2H-tetrazol-5-yl)benzenesulfonamide] | 0.329 | 1.563 | 1.00 | 0.177 | 0.363 | 3.125 | 1.563 | 1.563 | 1.563 | – |
| CC(N)CS(=O)(=O)c1ccc(-c2cccc3sc(N)nc23)c(-c2nn[nH]n2)c1S(N)(=O)=O (stereo not drawn) [Example 269, 3-(2-aminobenzo[d]thiazol-4-yl)-6-(2-aminopropylsulfonyl)-2-(2H-tetrazol-5-yl)benzenesulfonamide] | 0.176 | 0.7813 | 1.00 | 0.116 | 0.152 | 3.125 | 1.563 | 1.563 | 0.7813 | – |
| Cl.Cl.NCCCS(=O)(=O)c1ccc(-c2cccc3[nH]c(N)nc23)c(-c2nn[nH]n2)c1S(N)(=O)=O [Example 270, 3-(2-amino-1H-benzo[d]imidazol-4-yl)-6-(3-aminopropylsulfonyl)-2-(2H-tetrazol-5-yl)benzenesulfonamide dihydrochloride] | 0.228 | 0.4453 | 1.00 | 0.143 | 0.625 | 0.8906 | 0.6406 | 0.125 | 0.4453 | – |
| NCCS(=O)(=O)c1ccc(-c2ccnc3c2CCCC3)c(-c2nn[nH]n2)c1S(N)(=O)=O [Example 271, 6-(2-aminoethylsulfonyl)-3-(5,6,7,8-tetrahydroquinolin-4-yl)-2-(2H-tetrazol-5-yl)benzenesulfonamide] | 0.177 | 12.5 | 8.00 | 1.33 | 0.687 | 3.125 | 3.125 | 3.125 | 1.563 | – |
| NCCS(=O)(=O)c1ccc(C2CCNc3ccccc32)c(-c2nn[nH]n2)c1S(N)(=O)=O (stereo not drawn) [Example 272, 6-(2-aminoethylsulfonyl)-3-(1,2,3,4-tetrahydroquinolin-4-yl)-2-(2H-tetrazol-5-yl)benzenesulfonamide] | 0.64 | 100 | 63.98 | – | 6.06 | 6.25 | 6.25 | 3.125 | 1.563 | 1.84 |
| Nc1nc2c(-c3ccc(S(=O)(=O)C[C@H](N)CO)c(S(N)(=O)=O)c3-c3nn[nH]n3)cccc2[nH]1 [Example 273, 3-(2-amino-1H-benzo[d]imidazol-4-yl)-6-((R)-2-amino-3-hydroxypropylsulfonyl)-2-(2H-tetrazol-5-yl)benzenesulfonamide] | 0.254 | 0.7813 | 1.00 | 0.147 | 0.709 | 1.563 | 1.563 | 0.3906 | 0.7813 | – |
